{
  "source": "patent US20240280565A1",
  "about": "“EX VIVO HUMAN MODEL INTENDED FOR EVALUATING ALLERGIC OR PSEUDO-ALLERGIC INFLAMMATORY POTENTIAL” (GENOSKIN, priority 2021, published 2024)",
  "test_system": "skin explant",
  "assay": "Inflammatory potential: cytokine assay in culture medium or matrix of injected skin explant",
  "assay_type": "cell-based, human",
  "conditions": "100 μL CETROTIDE solution, cetrorelix 0.25 mg/l mL, injected into adipose tissue of explant",
  "procedure": "A CETROTIDE solution of 100 μL with a cetrorelix concentration of 0.25 mg/l mL (luteinizing hormone inhibitor that competes by binding to its receptor) was injected into the adipose tissue of an explant, as described previously, using a syringe and a 12 mm long, 27 G needle. As a negative and positive control, 100 μL of a PBS solution and 100 μL of a concentrated solution of compound 48/80 (50 μg/mL, an MRGPRX2 agonist), respectively, were each injected into the adipose tissue of different explants, as described previously.\nThe culture medium or matrix supporting the explants are collected and an assay of cytokines is conducted using an ELISA-type methods or any other type of method intended to detect and quantify the presence of cytokines.",
  "note": "Non-standard residues stand in square brackets, D forms with d. Residues, ends and D or L forms follow the SMILES beside them. dPhe(4-Cl) = N[C@H](Cc1ccc(Cl)cc1)C(=O)O; d2Nal = N[C@H](Cc1ccc2ccccc2c1)C(=O)O; dCit = NC(=O)NCCC[C@@H](N)C(=O)O; d3Pal = N[C@H](Cc1cccnc1)C(=O)O",
  "data": [
    {"compound": "CC(=O)N[C@H](Cc1ccc2ccccc2c1)C(=O)N[C@H](Cc1ccc(Cl)cc1)C(=O)N[C@H](Cc1cccnc1)C(=O)N[C@@H](CO)C(=O)N[C@@H](Cc1ccc(O)cc1)C(=O)N[C@H](CCCNC(N)=O)C(=O)N[C@@H](CC(C)C)C(=O)N[C@@H](CCCNC(=N)N)C(=O)N1CCC[C@H]1C(=O)N[C@H](C)C(N)=O", "note": "[cetrorelix] (Ac-[d2Nal][dPhe(4-Cl)][d3Pal]SY[dCit]LRP[dA]-NH2)", "values": [
      {"measurement": "Inflammatory potential (cytokines)", "value": "confirmed the inflammatory potential"}
    ]}
  ]
}
